{"source": "patent US11833256B2", "about": "“Selective RARγ ligand-loaded nanoparticles for manipulation of targeted bone growth” (University Of Maryland, Baltimore, priority 2017, dated 2023)", "key": {"[1]": {"test_system": "canonical BMP signaling reporter Id1-Luc", "test": "Id1-luc reporter assay in primary chondrocytes", "type": "cell-based, mouse", "description": "Primary mouse epiphyseal chondrocytes were isolated from neonatal C57BL/6J mice according to known methods (Yasuhara et al., Lab. Invest. 91(12):1739-1752, 2011) and were plated on 48- or 96-well plates and serum-starved overnight. Cultures were co-transfected with canonical BMP signaling reporter Id1-Luc or retinoic acid response element (RARE)-Luc plasmids and phRG-TK (Promega™) using Lipofectamine LTX™ and Plus™ reagent (Invitrogen™) according to the manufacturer's protocol. Twenty four hours later, cells were treated with rhBMP-2 and/or retinoid and incubated for an additional 24 hours. Cells then were harvested and subjected to dual luciferase assay (Promega™). Firefly luciferase activity was normalized to renilla luciferase activity generated by phRG-TK.\nEnhancement of BMP-Smad signaling by RARγ antagonists was confirmed by Id1-luc reporter assays. Cells were treated with the indicated doses of CD2665 or MM11253 in the absence or presence of 10 ng/mL rhBMP-2."}, "[2]": {"test_system": "ectopic endochondral bone formation in BMP-Matrigel", "test": "Ectopic bone formation model (rhBMP-2-containing Matrigel injected subcutaneously)", "type": "in vivo, mouse", "conditions": "for biological activities in an ectopic bone formation model: mouse, in vivo; for ectopic bone formation (μCT, BV/TV): oral gavage on day 3, 5 and 7, ectopic masses collected day 12, vs vehicle", "description": "Ectopic bone formation was induced in mice according to known methods. See Shimono et al., J. Orthop. Res. 28(2):271-277, 2010. Briefly, recombinant human bone morphogenetic protein-2 (rhBMP-2; Gene Script™ Corp., Piscataway, NJ) was added to growth-factor reduced Matrigel™ (BD Bioscience™, Inc., Franklin Lakes, NJ) on ice to a final concentration of 4 µg/mL. Two hundred fifty 250 μL, rhBMP-2-containing Matrigel™ was injected into the left and right subcutaneous abdominal region of 2-month-old CD-1 female mice. Ectopic tissue samples were harvested and subjected to μCT and histological analyses.\nAfter fixation, samples were subjected to μCT analysis using a CT35 scanner (SCANCO USA™ Inc., Southeastern, PA) at 55 kV and […] for bone volume/tissue volume (BV/TV) analysis. Normalized BV/TV means were calculated by ratios of experimental versus control values.\nTo further evaluate the roles of RARγ and the efficacy of RARγ antagonists on bone formation, the effects of three selective RARγ antagonists were compared with the RARγ agonist, NRX204647, using a mouse ectopic bone model. Recombinant human BMP-2 containing Matrigel™ (BMPMatrigel) was transplanted subcutaneously in the abdomens of CD-1 female mice (ectopic bone formation model). The injected BMP-Matrigel™ mixture rapidly solidified and developed endochondral bone within 10 to 12 days (see FIG. 13B).\nThe BMP-Matrigel™ injected mice were randomly subdivided into groups and subjected to oral gavage with vehicle corn oil, RARγ agonist or each of the 3 antagonists on day 3, 5 and 7 (see structures in FIG. 13A). The control mouse with vehicle treatment had inductive masses in the Matrigel™-injected sites (see FIG. 13B). Ectopic tissue masses were collected on day 12 and subjected to X-ray and μCT analyses. Micro-CT images of pellets harvested 12 days after implantation were taken. FIG. 13C.\nMice with Matrigel™ Pellets as described above were administered vehicle or 4 mg/kg CD2665 on day 3, 5 and 7 after BMP2-Matrigel™ transplantation by gavage, and then analyzed on Day 7 or Day 12. FIG. 14A. Separately, a second group of mice were administered vehicle or 4 mg/kg CD2665 on day 7, 9 and 11 after BMP2-Matrigel transplantation and analyzed either on day 12 or 17. Pellets were collected at the indicated time, fixed and subjected to μCT analysis (bottom row). Pellets were then sectioned and stained with Alcian blue for quantitation of cartilage (top row).\nSamples were first subjected to μCT analysis and were then sectioned and stained with Alcian blue for quantification of cartilage. For each group, 3 sections each (1 mm interval of 4 independent samples) were analyzed. […] For the experiments shown in FIG. 15A, mice were administered vehicle or 4 mg/kg of CD2665 by gavage on day 3, 5 and 7 from BMP-Matrigel™ implantation and samples were collected on day 7 or 12.\nTo examine these later stages more closely, mice implanted with BMP-Matrigel™ were treated with a RARγ antagonist on day 7, 9 and 11, and the ectopic tissue masses were analyzed on day 12 or 17 (FIG. 15B). […] The findings reaffirm that RARγ antagonists enhance cartilage formation during the middle stages of endochondral ossification and eventually lead to increases in bone formation. For experiments in FIG. 15B, mice were administered vehicle or 4 mg/kg CD2665 by gavage on day 7, 9 and 11 from implantation and analyzed on day 12 or 17. […]\nSubcutaneous transplantation of rhBMP-2 containing Matrigel™ (BMP-Matrigel™) pellets in the abdomens of 2-month-old CD-1 female mice was performed. On day 3 and 10, 5 μl of empty NP or 7c-loaded NP (7c-NP: 3.5 μg in 5 μl) were injected around the Matrigel™ pellets. Ectopic bone tissue was corrected on day 15 and subjected to μCT analysis."}, "[3]": {"conditions": "4 mg/kg gavage day 3, 5, 7, analysed day 12"}, "[4]": {"conditions": "4 mg/kg gavage day 7, 9, 11, analysed day 12"}}}
{"molecule": "COCCOCOc1cc2ccc(-c3ccc(C(=O)O)cc3)cc2cc1C12CC3CC(CC(C3)C1)C2", "note": "[CD2665]", "values": [{"measurement": "Id1-luc reporter activity", "setting": "[1]; absence of exogenous rhBMP-2", "value": "slightly increased"}, {"measurement": "Id1-luc reporter activity", "setting": "[1]; presence of 10 ng/mL rhBMP-2", "value": "significantly enhanced"}, {"measurement": "amount of cartilage in ectopic masses (Alcian blue)", "setting": "[2]; 4 mg/kg gavage day 3, 5, 7, analysed day 7", "value": "significantly higher amount of cartilage than controls"}, {"measurement": "area of cartilage in ectopic masses (Alcian blue)", "setting": "[2]; [3]", "value": "still more abundant in treated than control samples"}, {"measurement": "mineralized tissue volume vs control (μCT)", "setting": "[2]; [3]", "value": "about 2 fold"}, {"measurement": "amount of mineralized tissue vs control", "setting": "[2]; [4]", "value": "not significant"}, {"measurement": "cartilaginous tissue in ectopic masses", "setting": "[2]; [4]", "value": "more cartilaginous tissue"}, {"measurement": "volume of bone vs control", "setting": "[2]; 4 mg/kg gavage day 7, 9, 11, analysed day 17", "value": "significantly larger volume of bone than controls"}, {"measurement": "biological activities in an ectopic bone formation model", "setting": "[2]", "value": "proven biological activities"}, {"measurement": "ectopic bone formation (μCT, BV/TV)", "setting": "[2]", "value": "significantly increased the amount of detectable bone"}]}
{"molecule": "CC1(C)CCC(C)(C)c2cc(C3(c4ccc5cc(C(=O)O)ccc5c4)SCCS3)ccc21", "note": "[MM11253]", "values": [{"measurement": "Id1-luc reporter activity", "setting": "[1]; absence of exogenous rhBMP-2", "value": "slightly increased"}, {"measurement": "Id1-luc reporter activity", "setting": "[1]; presence of 10 ng/mL rhBMP-2", "value": "significantly enhanced"}, {"measurement": "biological activities in an ectopic bone formation model", "setting": "[2]", "value": "proven biological activities"}, {"measurement": "ectopic bone formation (μCT, BV/TV)", "setting": "[2]", "value": "significantly increased the amount of detectable bone"}]}
